Laboratory results reported in patent publication US8097650B2, “Method of treating a condition associated with phosphorylation of TASK-1” (The Trustees of Columbia University In The City of New York, priority 2005, dated 2012).

Legend:
TASK-1 = experiment: C-PAF-sensitive TASK-1 current in mouse ventricular myocytes dialyzed with PKCε peptides; assay type: cell-based; settings: modified Tyrode's (high K+), scrambled peptide in pipette
Method: (§1) Mouse ventricular myocytes were isolated using a retrograde coronary perfusion method previously published (Kuznetsov V et al. (1995) Circ Res 76: 40-52). All the experiments were carried out according to the guidelines issued by the IACUC of Columbia University. Adult mice 2 or 3 months old, were anaesthetized with a xylazine and ketamine mix and heparinized, the heart was quickly removed and the ascending aorta was connected to the outlet of a Langendorff column and perfused with 20-25 ml of a buffer solution (37° C.) containing (mM):NaCl, 112; KCl, 5.4; NaHCO3, 4.2; MgCl2, 1.6; HEPES, 20; glucose, 5.4; NaH2PO4, 1.7; taurine, 10; L-glutamine, 4.1; MEM amino acids solution, 2%; MEM vitamin solution, 1%; adjusted to pH 7.4, and equilibrated with 100% O2. Next, the heart was perfused with an enzyme solution containing collagenase (0.2 mg/ml; Worthington Type II) and trypsin (0.04 mg/ml) at 35° C. for 10-12 min. After this perfusion, the atria were removed and the ventricles minced and transferred to a 50 ml flask with an enzyme solution containing collagenase (0.45 mg/ml), trypsin (0.08 mg/ml), Ca^2+ (0.75 mM) and bovine serum albumin (BSA; 4.8 mg/ml). The flask was shaken vigorously for 5-10 min at 32° C. before the supernatant was removed and the cells were collected by centrifugation, this operation was repeated two or three times and additional disaggregated cells were collected. After centrifugation, the myocytes were resuspended in the buffer solution containing Ca^2+ (0.75 mM) and BSA and stored at room temperature until use. Rod-shaped, Ca^2+-tolerant myocytes, obtained with this procedure, were used within 6 h of dissociation. Measurements were performed only on quiescent myocytes with clear striations
The myocyte suspension or the coverslip with CHO cells was placed into a perfusion chamber, mounted on the stage of an inverted microscope. Unless otherwise indicated, CHO cells were superfused at room temperature with standard external Tyrode's buffer, containing (mM): NaCl, 140; KCl, 5.4; CaCl2, 1; MgCl2, 1; HEPES, 5; glucose, 10; adjusted to pH 7.4. Recordings were begun after the current reached a stable baseline (usually 3 to 4 min after initial cell rupture). In myocytes, TASK-1 current is small and exists in the presence of numerous larger K^+ currents. […] Membrane potential and current were measured in the whole cell configuration using borosilicate glass pipettes with a tip resistance between […] and filled with a pipette solution containing (mM): aspartic acid, 130; KOH, 146; NaCl, 10; CaCl2, 2; EGTA, 5; HEPES, 10; MGATP, 2; pH 7.2. […] Myocytes treated with the peptides were monitored continuously beginning immediately after rupture to detect the occurrence of any arrhythmias during dialysis of the peptide. […]

[1] = system: mouse ventricular myocytes; experiment: Repolarization abnormalities in mouse ventricular myocytes paced at 1 Hz with PKCε peptides; assay type: cell-based
Method: as §1
The myocyte suspension or the coverslip with CHO cells was placed into a perfusion chamber, mounted on the stage of an inverted microscope. Unless otherwise indicated, CHO cells were superfused at room temperature with standard external Tyrode's buffer, containing (mM): NaCl, 140; KCl, 5.4; CaCl2, 1; MgCl2, 1; HEPES, 5; glucose, 10; adjusted to pH 7.4. Recordings were begun after the current reached a stable baseline (usually 3 to 4 min after initial cell rupture). In myocytes, TASK-1 current is small and exists in the presence of numerous larger K^+ currents. In order to increase the inward component of TASK-1 current and to block other potassium currents in myocytes, a modified high K^+ external solution (modified Tyrode's) was used to reduce outward rectification of TASK-1 current. The composition of this solution-was (in mM): NaCl, 100; KCl, 50; CaCl2, 1; MgCl2, 1; HEPES, 5; glucose, 10; tetraethylammonium (TEA), 1; CsCl, 5; adjusted to pH 7.4. Membrane potential and current were measured in the whole cell configuration using borosilicate glass pipettes with a tip resistance between […] and filled with a pipette solution containing (mM): aspartic acid, 130; KOH, 146; NaCl, 10; CaCl2, 2; EGTA, 5; HEPES, 10; MGATP, 2; pH 7.2. The stock solutions of C-PAF and of the PKC inhibitor, bisindolylmaleimide (BIM-I; Calbiochem), were prepared in water and diluted to the final concentrations in Tyrode's or modified Tyrode's, as appropriate. The PKC activator, PMA, was prepared in DMSO and then diluted in Tyrode's. […] Myocytes treated with the peptides were monitored continuously beginning immediately after rupture to detect the occurrence of any arrhythmias during dialysis of the peptide. Application of C-PAF to cells treated with the inhibitor peptide was started after the peptide had been permitted to dialyse into the cell (8-10 min after rupture for CHO or 10-12 min after rupture for myocytes).
The current and the voltage protocols were generated using Clampex 8.0 software applied by means of an Axopatch 200-B and a Digidata 1200 interface (Axon Instruments). In current clamp mode, for recording action potentials, the signals were filtered at 1 KHz (low pass Bessel filter) and acquired at a sampling rate of 5 KHz. […]

Q: Which “reversal potential of C-PAF-sensitive current” value (TASK-1) does the source give for `CCCCCCCCCCCCCCCCOC[C@H](COP(=O)([O-])OCC[N+](C)(C)C)OC(=O)NC` [C-PAF, carbamyl-platelet-activating factor] here?
A: −26.1±1.9 mV

Q: And the “cells with repolarization abnormalities” value ([1]; C-PAF 2 min, no peptide in pipette)?
A: 5 of 7

Q: What about the repolarization abnormalities ([1]; C-PAF, PKCε-specific inhibitor peptide 100 nM in pipette) of the same molecule?
A: failed to induce repolarization abnormalities in any of the 8 cells

Q: And the “cells with abnormalities during repolarization” value ([1]; C-PAF, scrambled peptide 100 nM in pipette)?
A: 14 of 19
